Structures can show the parent of a compound that is named as a salt.
What follows are compounds tested against T1, HCV polymerase (Hepatitis C virus genotype 1b, UniProt P26663) (assay: biochemical).
T1 construct: a region encoding NS5B (J Virol 1991 March, 65(3), 1105-13, 544 amino acids after deletion of 47 amino acids on the C-terminal); 6xHis (C); made in house; host or cells: Escherichia coli
Design: species or system HCV BK strain
How it was run: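 His-tagged NS5B (BK strain, 47-aa C-terminal deletion, E. coli-expressed) at 0.5 μg/ml copied 5 μg/ml run-off RNA bearing the HCV 3′ UTR with 2 μM UTP plus [3H]UTP, 50 μM ATP/GTP, in pH 7.5 Tris with 5 mM MgCl2, 25 °C, 90 min. TCA-precipitated RNA was counted and IC50 calculated.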

T1 sequence (P26663 2420-2963): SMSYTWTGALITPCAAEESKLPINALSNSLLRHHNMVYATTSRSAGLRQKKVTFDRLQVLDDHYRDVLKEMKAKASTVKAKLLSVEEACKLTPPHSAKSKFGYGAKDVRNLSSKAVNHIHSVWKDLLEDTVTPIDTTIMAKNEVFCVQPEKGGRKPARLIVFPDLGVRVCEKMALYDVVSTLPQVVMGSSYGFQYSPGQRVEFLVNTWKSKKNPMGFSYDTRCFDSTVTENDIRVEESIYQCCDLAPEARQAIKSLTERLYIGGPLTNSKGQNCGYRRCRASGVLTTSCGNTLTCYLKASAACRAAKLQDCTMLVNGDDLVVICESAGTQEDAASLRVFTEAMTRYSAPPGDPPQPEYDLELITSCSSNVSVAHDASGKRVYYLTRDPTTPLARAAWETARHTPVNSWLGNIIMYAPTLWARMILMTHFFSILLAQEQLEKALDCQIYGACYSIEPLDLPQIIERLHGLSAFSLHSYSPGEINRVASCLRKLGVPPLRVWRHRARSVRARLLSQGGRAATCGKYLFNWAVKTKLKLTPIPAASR

SMILES | IC50 [nM]
COc1ccc2c(c1)OCCn1c-2c(C2CCCCC2)c2ccc(C(=O)NC(Cc3ccc(O)cc3)C(C)C)cc21 (stereo not drawn) [Example 2-436, N-[1-(4-hydroxybenzyl)-2-methylpropyl]-12-cyclohexyl-3-methoxy-6,7-dihydro-5-oxa-7a-azadibenzo[a,e]azulene-9-carboxamide] | < 100
COCCOc1cc2[nH]c(C3(NC(=O)c4ccc5c(C6CCCCC6)c6n(c5c4)CCOc4cc(OC)ccc4-6)CCC3)nc2cc1C(=O)O [Example 2-437, 2-{1-[(12-cyclohexyl-3-methoxy-6,7-dihydro-5-oxa-7a-azadibenzo[a,e]azulene-9-carbonyl)amino]cyclobutyl}-6-(2-methoxyethoxy)-1H-benzimidazole-5-carboxylic acid] | < 100
COCCOc1cc2[nH]c(C3(NC(=O)c4ccc5c(C6CCCCC6)c6n(c5c4)CCOc4cc(OC)ccc4-6)CCC3)nc2cc1CO [Example 2-438, N-{1-[5-hydroxymethyl-6-(2-methoxyethoxy)-1H-benzimidazol-2-yl]cyclobutyl}-12-cyclohexyl-3-methoxy-6,7-dihydro-5-oxa-7a-azadibenzo[a,e]azulene-9-carboxamide] | < 100
COc1ccc2c(c1)OCCn1c-2c(C2CCCCC2)c2ccc(C(=O)NC3(c4nc5ccc(O)cc5[nH]4)CCC3)cc21 [Example 2-439, N-[1-(6-hydroxy-1H-benzimidazol-2-yl)cyclobutyl]-12-cyclohexyl-3-methoxy-6,7-dihydro-5-oxa-7a-azadibenzo[a,e]azulene-9-carboxamide] | < 100
COc1ccc2c(c1)OCCn1c-2c(C2CCCCC2)c2ccc(C(=O)N[C@@H](Cc3c[nH]c4ccc(OCC(=O)O)cc34)c3csc(C)n3)cc21 [Example 2-440, {3-[(S)-2-[(12-cyclohexyl-3-methoxy-6,7-dihydro-5-oxa-7a-azadibenzo[a,e]azulene-9-carbonyl)amino]-2-(2-methylthiazol-4-yl)ethyl]-1H-indol-5-yloxy}acetic acid] | < 100
COc1ccc2c(c1)OCCn1c-2c(C2CCCCC2)c2ccc(C(=O)N[C@H](C#N)Cc3ccc(O)cc3)cc21 [Example 2-441, N—[(S)-cyano-(4-hydroxybenzyl)-methyl]-12-cyclohexyl-3-methoxy-6,7-dihydro-5-oxa-7a-azadibenzo[a,e]azulene-9-carboxamide] | < 100
COC(=O)C(N)Cc1ccc(C(C)(C)NC(=O)c2ccc3c(C4CCCCC4)c4n(c3c2)CCOc2cc(OC)ccc2-4)cc1 (stereo not drawn) [Example 2-442, methyl 2-amino-3-(4-{1-[(12-cyclohexyl-3-methoxy-6,7-dihydro-5-oxa-7a-azadibenzo[a,e]azulene-9-carbonyl)amino]-1-methylethyl}phenyl)propionate monohydrochloride] | < 100
COc1ccc2c(c1)OCCn1c-2c(C2CCCCC2)c2ccc(C(=O)NC(C)(C)c3ccc(CC(NC(C)=O)C(=O)O)cc3)cc21 (stereo not drawn) [Example 2-443, 2-acetylamino-3-(4-{1-[(12-cyclohexyl-3-methoxy-6,7-dihydro-5-oxa-7a-azadibenzo[a,e]azulene-9-carbonyl)amino]-1-methylethyl}phenyl)propionic acid] | < 100
COc1ccc2c(c1)OCCn1c-2c(C2CCCCC2)c2ccc(C(=O)NC(C)(C)c3ccc(CC(N)C(=O)O)cc3)cc21 (stereo not drawn) [Example 2-444, 2-amino-3-(4-{1-[(12-cyclohexyl-3-methoxy-6,7-dihydro-5-oxa-7a-azadibenzo[a,e]azulene-9-carbonyl)amino]-1-methylethyl}phenyl)propionic acid] | < 100
COc1ccc2c(c1)OCCn1c-2c(C2CCCCC2)c2ccc(C(=O)NC3(c4nc5ccc(C(C)(C)C(=O)O)cc5[nH]4)CCC3)cc21 [Example 2-445, 2-(2-{1-[(12-cyclohexyl-3-methoxy-6,7-dihydro-5-oxa-7a-azadibenzo[a,e]azulene-9-carbonyl)amino]cyclobutyl}-3H-benzimidazol-5-yl)-2-methylpropionic acid] | < 100
CCOc1ccc2c(c1)OCCn1c-2c(C2CCCCC2)c2ccc(C(=O)NC3(C(=O)Nc4ccc(/C=C/C(=O)O)cc4)CCC3)cc21 [Example 2-446, (E)-3-[4-({1-[(12-cyclohexyl-3-ethoxy-6,7-dihydro-5-oxa-7a-azadibenzo[a,e]azulene-9-carbonyl)amino]cyclobutanecarbonyl}amino)phenyl]acrylic acid] | < 100
COc1ccc2c(c1)OCCn1c-2c(C2CCCCC2)c2ccc(C(=O)NC3(c4nc5cc(C(C)(C)O)c(OC)cc5[nH]4)CCC3)cc21 [Example 2-447, N-{1-[5-(1-hydroxy-1-methylethyl)-6-methoxy-1H-benzimidazol-2-yl]cyclobutyl}-12-cyclohexyl-3-methoxy-6,7-dihydro-5-oxa-7a-azadibenzo[a,e]azulene-9-carboxamide] | < 100
COc1ccc2c(c1)OCCn1c-2c(C2CCCCC2)c2ccc(C(=O)NC3(C(=O)Nc4ccc5nc[nH]c5c4)CCC3)cc21 [Example 2-448, N-[1-(3H-benzimidazol-5-ylcarbamoyl)cyclobutyl]-12-cyclohexyl-3-methoxy-6,7-dihydro-5-oxa-7a-azadibenzo[a,e]azulene-9-carboxamide] | < 100
COc1ccc2c(c1)OCCn1c-2c(C2CCCCC2)c2ccc(C(=O)NC3(c4nc5ccc(C(=O)O)cc5[nH]4)CCN(C)CC3)cc21 [Example 2-449, 2-{4-[(12-cyclohexyl-3-methoxy-6,7-dihydro-5-oxa-7a-azadibenzo[a,e]azulene-9-carbonyl)amino]-1-methylpiperidin-4-yl}-3H-benzimidazole-5-carboxylic acid] | < 100
COc1ccc2c(c1)OCCn1c-2c(C2CCCCC2)c2ccc(C(=O)N[C@@H](Cc3ccc(O)cc3)C3=NCCN3)cc21 [Example 2-450, N—[(S)-1-(4,5-dihydro-1H-imidazol-2-yl)-2-(4-hydroxyphenyl)ethyl]-12-cyclohexyl-3-methoxy-6,7-dihydro-5-oxa-7a-azadibenzo[a,e]azulene-9-carboxamide] | < 100
COc1ccc2c(c1)OCCn1c-2c(C2CCCCC2)c2ccc(C(=O)NC3(C(=O)Nc4ccc(/C=C/C(=O)O)cc4OC)CCC3)cc21 [Example 2-451, (E)-3-[4-({1-[(12-cyclohexyl-3-methoxy-6,7-dihydro-5-oxa-7a-azadibenzo[a,e]azulene-9-carbonyl)amino]cyclobutanecarbonyl}amino)-3-methoxyphenyl]acrylic acid] | < 100
COc1ccc2c(c1)OCCn1c-2c(C2CCCCC2)c2ccc(C(=O)N[C@@H](Cc3ccc(O)cc3)C(=O)OC(C)(C)C)cc21 [Example 2-452, tert-butyl (S)-2-[(12-cyclohexyl-3-methoxy-6,7-dihydro-5-oxa-7a-azadibenzo[a,e]azulene-9-carbonyl)amino]-3-(4-hydroxyphenyl)propionate] | < 100
COc1ccc2c(c1)OCCn1c-2c(C2CCCCC2)c2ccc(C(=O)N[C@@H](Cc3ccc(O)cc3)c3nc(=O)on3C)cc21 [Example 2-453, N—[(S)-2-(4-hydroxyphenyl)-1-(2-methyl-5-oxo-2,5-dihydro-1,2,4-oxadiazol-3-yl)ethyl]-12-cyclohexyl-3-methoxy-6,7-dihydro-5-oxa-7a-azadibenzo[a,e]azulene-9-carboxamide] | < 100

Reference: patent US20070049593A1 (priority 2004, published 2007)
